{
  "source": "patent US20140161722A1",
  "about": "“USE OF PYRIMIDINE DERIVATIVES FOR THE TREATMENT OF EGFR DEPENDENT DISEASES OR DISEASES THAT HAVE ACQUIRED RESISTANCE TO AGENTS THAT TARGET EGFR FAMILY MEMBERS” (priority 2008, published 2014)",
  "test_system": "EGFR inhibitor resistant NSCLC cell line NCI-H1975",
  "test": "in vivo antitumor activity against s.c. NCI-H1975 tumors in athymic mice",
  "method": "Female Harlan athymic mice (n=6), bearing s.c NCI-H1975 tumors are treated p.o. with the PI3K inhibitor Compound A at 50 mg/kg every day for the duration of the treatment. * p<0.05 (Dunnet's vs controls).\nNon small cell lung carcinoma cell lines with EGFR mutant forms, but refractory to EGFR inhibition therapy, are valuable models to test the sensitivity of PI3K inhibitors like the compounds of formula I in such genetic background. The NCI-H1975 cell line is such a model as is highly tumorigenic in vivo. Moreover, it contains HER1 bearing the T790M gatekeeper mutation that renders the kinase resistant to catalytic inhibition by compounds such as gefitinib. The in vivo antitumor activity of PI3K inhibitors like the compounds of formula I is tested against this EGFR driven and EGFR tyrosine kinase inhibitor resistant tumor model (FIG. 1).",
  "data": [
    {"smiles": "Nc1cc(C(F)(F)F)c(-c2cc(N3CCOCC3)nc(N3CCOCC3)n2)cn1", "note": "[Compound A, 5-(2,6-di-morpholin-4-yl-pyrimidin-4-yl)-4-trifluoromethyl-pyridin-2-ylamine]", "values": [
      {"measurement": "antitumor activity (tumor growth)", "setting": "female Harlan athymic mice, s.c. NCI-H1975 tumors (HER1 T790M), 50 mg/kg p.o. every day, p<0.05 Dunnet's vs controls (FIG. 1)", "value": "in vivo tumor growth inhibition"},
      {"measurement": "mean body weight, control vs treatment group", "setting": "mice bearing s.c. NCI-H1975 tumors, 50 mg/kg p.o. every day (FIG. 2)", "value": "no statistically significant difference in body weight"},
      {"measurement": "tolerability", "setting": "mouse, in vivo, 50 mg/kg", "value": "well tolerated"}
    ]}
  ]
}
